Measurements as given in patent US10703733B2, “MCL-1 inhibitors” (Gilead Sciences, Inc., priority 2018, dated 2020).
pEC50, pIC50: −log10 of the molar value. Like-named read-outs stand apart in the source and are kept apart here.

Experiments:
[1] = biological target: MCL-1/Bim interaction (recombinant human MCL-1 protein, residues 171-327; biotinylated human Bim peptide, residues 51-76) (Homo sapiens (Human), UniProt Q07820); assay: MCL-1/Bim Binding AlphaLISA Assay; details: 0.0625 nM 6xHis-Mcl-1 (171-327), 0.0625 nM biotinylated-Bim peptide
Procedure, shortened: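 AlphaLISA with 0.0625 nM His-tagged MCL-1 and 0.0625 nM biotin-Bim peptide in 20 mM Hepes pH 7.5, 150 mM NaCl, 0.002% Brij 35, 1 mM DTT, 0.01% BSA. Compound preincubated 1 h with MCL-1, Bim added for 2 h, then acceptor and donor beads 1 h each.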

SKBR3 cells = assay: SKBR3 Cell Viability Assay (CellTiter Glo); type: cell-based; details: CellTiter Glo luminescence, read-out: MCL-1 CV SKBR3 EC50
Procedure, shortened: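 SKBR3 cells (6,000/well) in McCoy 5A + 10% FBS exposed to serially diluted compound for 72 h at 37° C., 5% CO2. Viability by CellTiter Glo luminescence; % inhibition normalized to DMSO (negative) and 10 μM puromycin (positive).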

Chain of MCL-1/Bim interaction (recombinant human MCL-1 protein, residues 171-327; biotinylated human Bim peptide, residues 51-76) (Q07820 171-327): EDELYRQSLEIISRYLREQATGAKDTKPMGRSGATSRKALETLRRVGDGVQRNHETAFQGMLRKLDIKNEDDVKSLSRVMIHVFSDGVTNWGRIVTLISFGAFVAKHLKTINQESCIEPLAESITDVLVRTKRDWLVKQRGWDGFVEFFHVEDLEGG

SMILES	pIC50 [1]	pEC50 (SKBR3 cells; Homo sapiens, SK-BR-3, 72 h)	pEC50 (SKBR3 cells; 72 hours)
CO[C@H]1/C=C/C[C@H](C)C[S@@](=O)(NC(=O)c2csc(C)n2)=NC(=O)c2ccc3c(c2)N(C[C@@H]2CC[C@H]21)C[C@@]1(CCCc2cc(Cl)ccc21)CO3 [Example 146]	10.21	6.73	
CO[C@H]1/C=C/C[C@H](C)C[S@@](=O)(NC(=O)c2cnn(C3CCC3)c2)=NC(=O)c2ccc3c(c2)N(C[C@@H]2CC[C@H]21)C[C@@]1(CCCc2cc(Cl)ccc21)CO3 [Example 176]	9.86	7.10	
CO[C@H]1/C=C/CCC[S@@](=O)(NC(=O)CCc2ccco2)=NC(=O)c2ccc3c(c2)N(C[C@@H]2CC[C@H]21)C[C@@]1(CCCc2cc(Cl)ccc21)CO3 [Example 88]	8.82	5.59	
COCC(=O)NS1(=O)=NC(=O)c2ccc3c(c2)N(C[C@@H]2CC[C@H]2[C@@H](OC)/C=C/CCC1)C[C@@]1(CCCc2cc(Cl)ccc21)CO3 (single isomer, unassigned) [Example 7]	8.92		5.32
CO[C@H]1/C=C/C[C@H](C)C[S@@](=O)(NC(=O)N2CC3(COCCO3)C2)=NC(=O)c2ccc3c(c2)N(C[C@@H]2CC[C@H]21)C[C@@]1(CCCc2cc(Cl)ccc21)CO3 [Example 248]	10.38	7.26	
CO[C@H]1/C=C/CCC[S@@](=O)(NC(=O)Cc2ncccn2)=NC(=O)c2ccc3c(c2)N(C[C@@H]2CC[C@H]21)C[C@@]1(CCCc2cc(Cl)ccc21)CO3 [Example 30]	9.22	5.74	
CO[C@@H]1CC[C@@H](NC(=O)N[S@@]2(=O)=NC(=O)c3ccc4c(c3)N(C[C@@H]3CC[C@H]3[C@@H](OC)/C=C/C[C@H](C)C2)C[C@@]2(CCCc3cc(Cl)ccc32)CO4)C1 [Example 322]	10.24	7.19	
COc1cn(C)nc1C(=O)O[C@H]1/C=C/[C@H](OC)[C@@H]2CC[C@H]2CN2C[C@@]3(CCCc4cc(Cl)ccc43)COc3ccc(cc32)C(=O)N=[S@](=O)(NC(=O)c2cn(C)nc2OC)CC1 [Example 391]	9.15		5.34
COC(=O)N[C@H](C(=O)N1CCN(C(=O)N[S@@]2(=O)=NC(=O)c3ccc4c(c3)N(C[C@@H]3CC[C@H]3[C@@H](OC)/C=C/C[C@H](C)C2)C[C@@]2(CCCc3cc(Cl)ccc32)CO4)C[C@@H]1C)C(C)C [Example 285]	9.88	7.10	
CCC1CN(C(=O)N[S@@]2(=O)=NC(=O)c3ccc4c(c3)N(C[C@@H]3CC[C@H]3[C@@H](OC)/C=C/C[C@H](C)C2)C[C@@]2(CCCc3cc(Cl)ccc32)CO4)C1 [Example 242]	10.13	7.08	
CO[C@H]1/C=C/C[C@H](C)C[S@@](=O)(NC(=O)c2ccc3c(c2)COCC3)=NC(=O)c2ccc3c(c2)N(C[C@@H]2CC[C@H]21)C[C@@]1(CCCc2cc(Cl)ccc21)CC3 [Example 157]	9.63	7.19	
COC1CCN(C(=O)N[S@@]2(=O)=NC(=O)c3ccc4c(c3)N(C[C@@H]3CC[C@H]3[C@@H](OC)/C=C/C[C@H](C)C2)C[C@@]2(CCCc3cc(Cl)ccc32)CO4)CC1 [Example 320]	10.46	7.44	
CO[C@H]1/C=C/C[C@H](C)C[S@@](=O)(NC(=O)c2cnn(C(C)C)c2)=NC(=O)c2ccc3c(c2)N(C[C@@H]2CC[C@H]21)C[C@@]1(CCCc2cc(Cl)ccc21)CO3 [Example 123]	10.15	6.94	
CO[C@H]1/C=C/CCC[S@@](=O)(NC(=O)CCc2ccncc2)=NC(=O)c2ccc3c(c2)N(C[C@@H]2CC[C@H]21)C[C@@]1(CCCc2cc(Cl)ccc21)CO3 [Example 41]	10.00	6.59	
COC1CN(C2CN(C(=O)N[S@@]3(=O)=NC(=O)c4ccc5c(c4)N(C[C@@H]4CC[C@H]4[C@@H](OC)/C=C/C[C@H](C)C3)C[C@@]3(CCCc4cc(Cl)ccc43)CO5)C2)C1 [Example 286]	10.43	7.19	
CO[C@H]1/C=C/CCC[S@@](=O)(NC(=O)CCc2nccs2)=NC(=O)c2ccc3c(c2)N(C[C@@H]2CC[C@H]21)C[C@@]1(CCCc2cc(Cl)ccc21)CO3 [Example 91]	10.00	6.21	
CO[C@H]1/C=C/CCC[S@@](=O)(NC(=O)CCc2cnccn2)=NC(=O)c2ccc3c(c2)N(C[C@@H]2CC[C@H]21)C[C@@]1(CCCc2cc(Cl)ccc21)CO3 [Example 35]	9.70	6.58	
COC[C@H]1C[C@@H]1NC(=O)N[S@@]1(=O)=NC(=O)c2ccc3c(c2)N(C[C@@H]2CC[C@H]2[C@@H](OC)/C=C/C[C@H](C)C1)C[C@@]1(CCCc2cc(Cl)ccc21)CO3 [Example 303]	10.35	7.64	
CCn1ccc(C(=O)N[S@@]2(=O)=NC(=O)c3ccc4c(c3)N(C[C@@H]3CC[C@H]3[C@@H](OC)/C=C/C[C@H](C)C2)C[C@@]2(CCCc3cc(Cl)ccc32)CO4)c1 [Example 130]	9.74	6.82	
CO[C@H]1/C=C/C[C@H](C)C[S@@](=O)(NC(=O)C2CC(O)(C(F)(F)F)C2)=NC(=O)c2ccc3c(c2)N(C[C@@H]2CC[C@H]21)C[C@@]1(CCCc2cc(Cl)ccc21)CO3 (some centres unmarked) [Example 198]	10.37	6.98	
CCOC1CN(C(=O)N[S@@]2(=O)=NC(=O)c3ccc4c(c3)N(C[C@@H]3CC[C@H]3[C@@H](OC)/C=C/C[C@H](C)C2)C[C@@]2(CCCc3cc(Cl)ccc32)CO4)C1 [Example 235]	10.46	7.40	
CO[C@H]1/C=C/C[C@H](C)C[S@@](=O)(NC(=O)c2cnn(C)c2)=NC(=O)c2ccc3c(c2)N(C[C@@H]2CC[C@H]21)C[C@@]1(CCCc2cc(Cl)ccc21)CO3 [Example 148]	10.37	7.43	
COC(=O)N1CCN(C(=O)N[S@@]2(=O)=NC(=O)c3ccc4c(c3)N(C[C@@H]3CC[C@H]3[C@@H](OC)/C=C/C[C@H](C)C2)C[C@@]2(CCCc3cc(Cl)ccc32)CO4)CC1 [Example 245]	10.18	7.22	

Second part, led by results:

pIC50 [1]	pEC50 (SKBR3 cells; Homo sapiens, SK-BR-3, 72 h)	SMILES	pEC50 (SKBR3 cells; 72 hours)
10.08	7.10	CO[C@H]1CCN(C(=O)N[S@@]2(=O)=NC(=O)c3ccc4c(c3)N(C[C@@H]3CC[C@H]3[C@@H](OC)/C=C/C[C@H](C)C2)C[C@@]2(CCCc3cc(Cl)ccc32)CO4)C1 [Example 347]	
8.34	5.47	COC1CCN(c2nn(C)cc2C(=O)N[S@@]2(=O)=NC(=O)c3ccc4c(c3)N(C[C@@H]3CC[C@H]3[C@@H](OC)/C=C/C[C@H](C)C2)C[C@@]2(CCCc3cc(Cl)ccc32)CO4)CC1 [Example 380]	
9.86	6.10	COC(=O)N1CC[C@H](C(=O)N[S@@]2(=O)=NC(=O)c3ccc4c(c3)N(C[C@@H]3CC[C@H]3[C@@H](OC)/C=C/C[C@H](C)C2)C[C@@]2(CCCc3cc(Cl)ccc32)CO4)C1 [Example 439]	
10.12	7.28	COC[C@@H]1Cn2cc(C(=O)N[S@@]3(=O)=NC(=O)c4ccc5c(c4)N(C[C@@H]4CC[C@H]4[C@@H](O)/C=C/C[C@H](C)C3)C[C@@]3(CCCc4cc(Cl)ccc43)CO5)cc2CO1 [Example 326]	
10.49	7.40	CO[C@H]1/C=C/C[C@H](C)C[S@@](=O)(NC(=O)N[C@H]2CC23CCOC3)=NC(=O)c2ccc3c(c2)N(C[C@@H]2CC[C@H]21)C[C@@]1(CCCc2cc(Cl)ccc21)CO3 (single isomer, unassigned) [Example 341]	
10.35	6.55	CO[C@H]1/C=C/C[C@H](C)C[S@@](=O)(NC(=O)N[C@H]2C[C@H](O)C2)=NC(=O)c2ccc3c(c2)N(C[C@@H]2CC[C@H]21)C[C@@]1(CCCc2cc(Cl)ccc21)CO3 [Example 452]	
9.94	6.78	CO[C@H]1/C=C/C[C@H](C)C[S@@](=O)(NC(=O)C2CC3(CCOCC3)C2)=NC(=O)c2ccc3c(c2)N(C[C@@H]2CC[C@H]21)C[C@@]1(CCCc2cc(Cl)ccc21)CO3 [Example 435]	
10.11	6.77	CO[C@H]1/C=C/C[C@H](C)C[S@@](=O)(NC(=O)C2CC2c2cnn(C)c2)=NC(=O)c2ccc3c(c2)N(C[C@@H]2CC[C@H]21)C[C@@]1(CCCc2cc(Cl)ccc21)CO3 (some centres unmarked) [Example 425]	
10.33	6.88	CO[C@H]1/C=C/C[C@H](C)C[S@@](=O)(NC(=O)CO[C@H]2CCOC[C@H]2F)=NC(=O)c2ccc3c(c2)N(C[C@@H]2CC[C@H]21)C[C@@]1(CCCc2cc(Cl)ccc21)CO3 [Example 416]	
10.62	7.76	COC1CN(C(=O)N[S@@]2(=O)=NC(=O)c3ccc4c(c3)N(C[C@@H]3CC[C@H]3[C@@H](OC)/C=C/C[C@H](C)C2)C[C@@]2(CCCc3cc(Cl)ccc32)CO4)C1 [Example 362]	
10.00	7.30	COC[C@H]1Cn2cc(C(=O)N[S@@]3(=O)=NC(=O)c4ccc5c(c4)N(C[C@@H]4CC[C@H]4[C@@H](O)/C=C/C[C@H](C)C3)C[C@@]3(CCCc4cc(Cl)ccc43)CO5)cc2CO1 [Example 325]	
10.31	7.14	CO[C@H]1/C=C/C[C@H](C)C[S@@](=O)(NC(=O)N[C@H]2C[C@@H]2CN2CCOCC2)=NC(=O)c2ccc3c(c2)N(C[C@@H]2CC[C@H]21)C[C@@]1(CCCc2cc(Cl)ccc21)CO3 [Example 328]	
9.66	6.81	CO[C@H]1/C=C/C[C@H](C)[C@@H](C)[S@@](=O)(NC(=O)NC2CC2)=NC(=O)c2ccc3c(c2)N(C[C@@H]2CC[C@H]21)C[C@@]1(CCCc2cc(Cl)ccc21)CO3 [Example 414]	
9.28	6.98	CO[C@H]1/C=C/C[C@H](C)C[S@@](=O)(NC(=O)c2cc3n(c2)CCCC3)=NC(=O)c2ccc3c(c2)N(C[C@@H]2CC[C@H]21)C[C@@]1(CCCc2cc(Cl)ccc21)CO3 [Example 415]	
